# Test results published in patent US6844353B2, “Fungicidal properties of sampangine and its analogs to agriculturally important fungal plant pathogens” (The United States of America as represented by the …, priority 2003, dated 2005).
# Like-named read-outs stand apart in the source and are kept apart here.
# Key:
# Assay in all cases: 96-well microtiter plate assay, fungal growth inhibition
# C. gloeosporioides = format: cell-based, Colletotrichum gloeosporioides; conditions: for Percent inhibition−Percent Stimulation±SEM: C. gloeosporioides; for inhibition at 0.3 µM / inhibition at 3 µM / inhibition at 30 µM: Colletotrichum gloeosporioides, read-out: Percent inhibition−Percent Stimulation±SEM
# Description: (§1) Pathogen production. Isolates of Colletotrichum acutatum Simmonds, Colletotrichum fragariae Brooks, and Colletotrichum gloeosporioides (Penz.) Penz. & Sacc. in Penz. were obtained from B. J. Smith, USDA, ARS, Small Fruit Research Station, Poplarville, Miss. Colletotrichum fragariae (isolate CF63), C. acutatum (isolate CAGoff), and C. gloeosporioides (isolate CG162) were used for all pathogen and bioautography studies. Isolate CF63 is one of the most virulent isolates at infecting strawberry plants and inducing both crown and fruit rot (Smith and Black, 1990). CF63, CAGoff, and CG162 were used as standard test isolates because of our extensive knowledge of these isolates and their known fungicide sensitivity profiles in both bioautography and microtiter formats. The three Colletotrichum species were isolated from strawberry (Fragaria x ananassa Duchesne). Botrytis cinerea Pers.: Fr, was isolated from commercial grape (Vitis vinifera L.) and Fusarium oxysporum Schlechtend: Fr from orchid (Cynoches sp.). Phomopsis viticola (Sacc.) and P. obscurans (Ellis & Everh.) Sutton were from Mike A. Ellis, Ohio State University, Wooster, Ohio. Fungi were grown on potato-dextrose agar (PDA, Difco, Detroit, Mich.) in 9 cm petri dishes and incubated in a growth chamber at 24±2° C. and under cool-white fluorescent lights ([…]·m^−2·sec^−1 light) with 12 hour photoperiod.
# (§2) Inoculum preparation. Conidia were harvested from 7-10 day-old cultures by flooding plates with 5 mL of sterile distilled water and dislodging conidia by softly brushing the colonies with an L-shaped glass rod. Conidial suspensions were filtered through sterile miracloth (Calbiochem-Novabiochem Corp., La Jolla, Calif.) to remove mycelia. Conidia concentrations were determined photometrically, from a standard curve based on the percent of transmittance (% T) at 625 nm and suspensions were then adjusted with sterile distilled water to a concentration of 1.0×10^6 conidia/mL.
# (§3) Microtiter assay. A standardized 96-well microtiter plate assay developed for discovery of natural product fungicidal agents was used to evaluate naturally occurring antifungal agents from Macaranga monanara. A 96-well microtiter assay was used to determine sensitivity of B. cinerea, C. acutatum, C. fragariae, C. gloeosporioides, F. oxysporum, Phomopsis viticola, and P. obscurans to the various antifungal agents in comparison with known fungicidal standards. Vinclozolin, captan, and thiabendazole, which represent three different modes of action, were used as standards in this experiment. Each fungus was challenged in a dose-response format using test compounds where the final treatment concentrations were 0.3, 3.0 and 30.0 μM. Microtiter plates (Nunc MicroWell, untreated; Roskilde, Denmark) were covered with a plastic lid and incubated in a growth chamber as described previously for fungal growth. Growth was then evaluated by measuring absorbance of each well at 620 nm using a microplate photometer (Packard Spectra Count, Packard Instrument Co., Downers Grove, Ill.). Microtiter plates (Nunc MicroWell, untreated; Roskilde, Denmark) were covered with a plastic lid and incubated in a growth chamber at 24±1° C. and 12 hour photoperiod under 60±5 μmol light. Growth was then evaluated by measuring absorbance of each well at 620 nm using a microplate photometer (Packard Spectra Count, Packard Instrument Co., Downers Grove, Ill.).
# (§4) Microbioassy Experimental Design. Chemical sensitivity each of B. cinerea, C. acutatum, C. fragariae, C. gloeosporiodes, F. oxysporum, Phomopsis viticola, and P. obscurans was evaluated using 96-well plate microbioassay format. Each chemical was evaluated in duplicate at each dose (0.3, 3.0 and 30.0 μM). […]
# C. acutatum = format: cell-based, Colletotrichum acutatum; conditions: for Percent inhibition−Percent Stimulation±SEM: C. acutatum; for inhibition at 0.3 µM / inhibition at 3 µM / inhibition at 30 µM: Colletotrichum acutatum, read-out: Percent inhibition−Percent Stimulation±SEM
# Description: as §1, §2, §3, §4
# C. fragariae = format: cell-based, Colletotrichum fragariae; conditions: for Percent inhibition−Percent Stimulation±SEM: C. fragariae; for inhibition at 0.3 µM / inhibition at 3 µM / inhibition at 30 µM: Colletotrichum fragariae, read-out: Percent inhibition−Percent Stimulation±SEM
# Description: as §1, §2, §3, §4
# B. cinerea = format: cell-based, Botrytis cinerea; conditions: for Percent inhibition−Percent Stimulation±SEM: B. cinerea; for inhibition at 0.3 µM / inhibition at 3 µM / inhibition at 30 µM: Botrytis cinerea, read-out: Percent inhibition−Percent Stimulation±SEM
# Description: as §1, §2, §3, §4
# F. oxysporum = format: cell-based, Fusarium oxysporum; conditions: for Percent inhibition−Percent Stimulation±SEM: F. oxysporum; for inhibition at 0.3 µM / inhibition at 3 µM / inhibition at 30 µM: Fusarium oxysporum, read-out: Percent inhibition−Percent Stimulation±SEM
# Description: as §1, §2, §3, §4
smiles,measurement,setting,value
CO/N=C(/C(=O)OC)c1ccccc1COc1ccccc1C [BAS 490],Percent inhibition−Percent Stimulation±SEM,"C. gloeosporioides; 0.3 μM, 48 hrs",−83.3 ± 3.2%
same,Percent inhibition−Percent Stimulation±SEM,"C. gloeosporioides; 0.3 μM, 72 hrs",−58.7 ± 5.0%
same,Percent inhibition−Percent Stimulation±SEM,"C. gloeosporioides; 3.0 μM, 48 hrs",−92.4 ± 1.5%
same,Percent inhibition−Percent Stimulation±SEM,"C. gloeosporioides; 3.0 μM, 72 hrs",−82.6 ± 3.4%
same,Percent inhibition−Percent Stimulation±SEM,"C. gloeosporioides; 30 μM, 48 hrs",−97.5 ± 1.0%
same,Percent inhibition−Percent Stimulation±SEM,"C. gloeosporioides; 30 μM, 72 hrs",−89.7 ± 1.9%
same,Percent inhibition−Percent Stimulation±SEM,"C. acutatum; 0.3 μM, 48 hrs",−63.9 ± 3.8%
same,Percent inhibition−Percent Stimulation±SEM,"C. acutatum; 0.3 μM, 72 hrs",−17.8 ± 3.5%
same,Percent inhibition−Percent Stimulation±SEM,"C. acutatum; 3.0 μM, 48 hrs",−93.1 ± 0.6%
same,Percent inhibition−Percent Stimulation±SEM,"C. acutatum; 3.0 μM, 72 hrs",14.7 ± 2.5%
same,Percent inhibition−Percent Stimulation±SEM,"C. acutatum; 30 μM, 48 hrs",−95.1 ± 0.7%
same,Percent inhibition−Percent Stimulation±SEM,"C. acutatum; 30 μM, 72 hrs",−69.9 ± 2.6%
same,Percent inhibition−Percent Stimulation±SEM,"C. fragariae; 0.3 μM, 48 hrs",−68.8 ± 7.1%
same,Percent inhibition−Percent Stimulation±SEM,"C. fragariae; 0.3 μM, 72 hrs",−35.6 ± 5.6%
same,Percent inhibition−Percent Stimulation±SEM,"C. fragariae; 3.0 μM, 48 hrs",−86.4 ± 3.5%
same,Percent inhibition−Percent Stimulation±SEM,"C. fragariae; 3.0 μM, 72 hrs",−71.9 ± 3.5%
same,Percent inhibition−Percent Stimulation±SEM,"C. fragariae; 30 μM, 48 hrs",−91.5 ± 1.7%
same,Percent inhibition−Percent Stimulation±SEM,"C. fragariae; 30 μM, 72 hrs",−80.4 ± 1.4%
same,Percent inhibition−Percent Stimulation±SEM,"B. cinerea; 0.3 μM, 48 hrs",−71.3 ± 28.0%
same,Percent inhibition−Percent Stimulation±SEM,"B. cinerea; 0.3 μM, 72 hrs",−66.6 ± 21.5%
same,Percent inhibition−Percent Stimulation±SEM,"B. cinerea; 3.0 μM, 48 hrs",−24.0 ± 32.0%
same,Percent inhibition−Percent Stimulation±SEM,"B. cinerea; 3.0 μM, 72 hrs",−37.2 ± 20.2%
same,Percent inhibition−Percent Stimulation±SEM,"B. cinerea; 30 μM, 48 hrs",−60.1 ± 32.9%
same,Percent inhibition−Percent Stimulation±SEM,"B. cinerea; 30 μM, 72 hrs",−40.9 ± 17.6%
same,Percent inhibition−Percent Stimulation±SEM,"F. oxysporum; 0.3 μM, 48 hrs",−82.3 ± 3.0%
same,Percent inhibition−Percent Stimulation±SEM,"F. oxysporum; 0.3 μM, 72 hrs",−30.3 ± 6.9%
same,Percent inhibition−Percent Stimulation±SEM,"F. oxysporum; 3.0 μM, 48 hrs",−92.7 ± 0.6%
same,Percent inhibition−Percent Stimulation±SEM,"F. oxysporum; 3.0 μM, 72 hrs",−65.5 ± 1.6%
same,Percent inhibition−Percent Stimulation±SEM,"F. oxysporum; 30 μM, 48 hrs",−94.7 ± 0.5%
same,Percent inhibition−Percent Stimulation±SEM,"F. oxysporum; 30 μM, 72 hrs",−69.5 ± 2.0%
CCCCNC(=O)n1c(NC(=O)OC)nc2ccccc21 [Benomyl],inhibition at 0.3 µM,C. gloeosporioides; 48 h,47.5 ± 9.2%
same,inhibition at 3 µM,C. gloeosporioides; 48 h,84.2 ± 3.8%
same,inhibition at 30 µM,C. gloeosporioides; 48 h,82.4 ± 4%
same,inhibition at 0.3 µM,C. gloeosporioides; 72 h,16.1 ± 6.5%
same,inhibition at 3 µM,C. gloeosporioides; 72 h,59.9 ± 9.6%
same,inhibition at 30 µM,C. gloeosporioides; 72 h,44.8 ± 8.6%
same,inhibition at 0.3 µM,C. acutatum; 48 h,24.6 ± 6.1%
same,inhibition at 3 µM,C. acutatum; 48 h,20.3 ± 4.8%
same,inhibition at 30 µM,C. acutatum; 48 h,16.6 ± 6.3%
same,inhibition at 0.3 µM,C. acutatum; 72 h,-7.7 ± 6.6%
same,inhibition at 3 µM,C. acutatum; 72 h,47.7 ± 4.1%
same,inhibition at 30 µM,C. acutatum; 72 h,-15.2 ± 3.7%
same,inhibition at 0.3 µM,C. fragariae; 48 h,51.5 ± 5%
same,inhibition at 3 µM,C. fragariae; 48 h,89.6 ± 1.2%
same,inhibition at 30 µM,C. fragariae; 48 h,92.4 ± 1.1%
same,inhibition at 0.3 µM,C. fragariae; 72 h,36.8 ± 4.4%
same,inhibition at 3 µM,C. fragariae; 72 h,92.7 ± 1%
same,inhibition at 30 µM,C. fragariae; 72 h,94.3 ± 0.9%
same,inhibition at 0.3 µM,B. cinerea; 48 h,50 ± 26.9%
same,inhibition at 3 µM,B. cinerea; 48 h,21.6 ± 27.3%
same,inhibition at 30 µM,B. cinerea; 48 h,39.9 ± 20.4%
same,inhibition at 0.3 µM,B. cinerea; 72 h,71.2 ± 25.1%
same,inhibition at 3 µM,B. cinerea; 72 h,40.9 ± 22%
same,inhibition at 30 µM,B. cinerea; 72 h,47.3 ± 14.9%
same,inhibition at 0.3 µM,F. oxysporum; 48 h,3.3 ± 4.7%
same,inhibition at 3 µM,F. oxysporum; 48 h,12 ± 3%
same,inhibition at 30 µM,F. oxysporum; 48 h,86.3 ± 1.6%
same,inhibition at 0.3 µM,F. oxysporum; 72 h,-1.6 ± 3.2%
same,inhibition at 3 µM,F. oxysporum; 72 h,0.8 ± 3.5%
same,inhibition at 30 µM,F. oxysporum; 72 h,77.2 ± 2.3%
CC(C)NC(=O)N1CC(=O)N(c2cc(Cl)cc(Cl)c2)C1=O [Iprodione],inhibition at 0.3 µM,C. gloeosporioides; 48 h,-33.4 ± 10.1%
same,inhibition at 3 µM,C. gloeosporioides; 48 h,-49.6 ± 8.4%
same,inhibition at 30 µM,C. gloeosporioides; 48 h,23.4 ± 9.1%
same,inhibition at 0.3 µM,C. gloeosporioides; 72 h,-17.5 ± 6.7%
same,inhibition at 3 µM,C. gloeosporioides; 72 h,-30.7 ± 4%
same,inhibition at 30 µM,C. gloeosporioides; 72 h,-17.4 ± 7.9%
same,inhibition at 0.3 µM,C. acutatum; 48 h,-26.4 ± 10.7%
same,inhibition at 3 µM,C. acutatum; 48 h,-18.1 ± 3.2%
same,inhibition at 30 µM,C. acutatum; 48 h,-27.9 ± 5.5%
same,inhibition at 0.3 µM,C. acutatum; 72 h,-26.8 ± 9.9%
same,inhibition at 3 µM,C. acutatum; 72 h,-10.7 ± 3.1%
same,inhibition at 30 µM,C. acutatum; 72 h,-64.8 ± 4%
same,inhibition at 0.3 µM,C. fragariae; 48 h,-36.4 ± 12.3%
same,inhibition at 3 µM,C. fragariae; 48 h,-42.6 ± 10.4%
same,inhibition at 30 µM,C. fragariae; 48 h,-63.2 ± 10.7%
same,inhibition at 0.3 µM,C. fragariae; 72 h,-17.1 ± 3.6%
same,inhibition at 3 µM,C. fragariae; 72 h,-24 ± 4.6%
same,inhibition at 30 µM,C. fragariae; 72 h,-57.7 ± 12%
same,inhibition at 0.3 µM,B. cinerea; 48 h,-10.4 ± 11.1%
same,inhibition at 3 µM,B. cinerea; 48 h,34.2 ± 29.1%
same,inhibition at 30 µM,B. cinerea; 48 h,38.1 ± 29.3%
same,inhibition at 0.3 µM,B. cinerea; 72 h,28.3 ± 27.9%
same,inhibition at 3 µM,B. cinerea; 72 h,43.3 ± 20.5%
same,inhibition at 30 µM,B. cinerea; 72 h,41.3 ± 20.6%
same,inhibition at 0.3 µM,F. oxysporum; 48 h,1.8 ± 2.6%
same,inhibition at 3 µM,F. oxysporum; 48 h,8.3 ± 3.1%
same,inhibition at 30 µM,F. oxysporum; 48 h,7.7 ± 4.6%
same,inhibition at 0.3 µM,F. oxysporum; 72 h,-2.3 ± 3%
same,inhibition at 3 µM,F. oxysporum; 72 h,-4.1 ± 4%
same,inhibition at 30 µM,F. oxysporum; 72 h,-11.2 ± 5.3%
